Measurements reported in US20230348376A1 (TEIJIN PHARMA LIMITED, priority 2020, published 2023).

What follows are compounds tested against T1, human VDR (Homo sapiens, UniProt P11473) (assay: Evaluation of VDR transcription activity in human osteoblasts (HOS cells), luciferase reporter). Conditions: Activity (EC50, VDR transcription activity), HOS cells transfected with human VDR, human RXRα and DR3 luciferase reporter; 21 hours.
T1 sequence (P11473 1-427): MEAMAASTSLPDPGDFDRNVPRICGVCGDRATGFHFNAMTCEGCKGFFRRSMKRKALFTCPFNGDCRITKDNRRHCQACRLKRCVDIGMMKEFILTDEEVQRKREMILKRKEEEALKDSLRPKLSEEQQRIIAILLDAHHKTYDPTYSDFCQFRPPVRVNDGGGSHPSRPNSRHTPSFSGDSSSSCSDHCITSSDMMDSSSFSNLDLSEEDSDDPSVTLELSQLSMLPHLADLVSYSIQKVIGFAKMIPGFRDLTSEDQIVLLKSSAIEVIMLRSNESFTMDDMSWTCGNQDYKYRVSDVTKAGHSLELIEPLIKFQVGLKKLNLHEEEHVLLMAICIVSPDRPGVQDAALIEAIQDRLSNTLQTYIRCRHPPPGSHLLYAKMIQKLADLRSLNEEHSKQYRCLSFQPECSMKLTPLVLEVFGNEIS
T1 sequence (P19793 1-462 partner): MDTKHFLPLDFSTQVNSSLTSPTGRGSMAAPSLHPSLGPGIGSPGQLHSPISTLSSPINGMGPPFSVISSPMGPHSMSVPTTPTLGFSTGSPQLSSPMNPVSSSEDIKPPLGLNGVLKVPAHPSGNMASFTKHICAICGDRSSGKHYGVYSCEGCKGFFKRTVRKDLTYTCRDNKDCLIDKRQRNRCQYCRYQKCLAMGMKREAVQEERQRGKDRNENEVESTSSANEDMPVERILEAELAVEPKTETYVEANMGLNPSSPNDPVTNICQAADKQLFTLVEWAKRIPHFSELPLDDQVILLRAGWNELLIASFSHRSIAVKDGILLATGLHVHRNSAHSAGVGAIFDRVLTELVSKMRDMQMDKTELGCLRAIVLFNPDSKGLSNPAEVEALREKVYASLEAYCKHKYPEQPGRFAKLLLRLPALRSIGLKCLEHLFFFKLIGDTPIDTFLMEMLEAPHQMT

Structure (SMILES)	EC50
C=C1[C@H](O)CC(=C/C=C2\CCC[C@]3(C)[C@@H]([C@H](C)CN4CC(F)C4)CC[C@@H]23)C[C@H]1O [Compound A002, (1R,3R)-5-(2-((1R,3aS,7aR,E)-1-((S)-1-(3-fluoroazetidin-1-yl)propan-2-yl)-7a-methyloctahydro-4H-inden-4-ylidene)ethylidene)-2-methylenecyclohexane-1,3-diol]	10 to 100 nM
C=C1[C@H](O)CC(=C/C=C2\CCC[C@]3(C)[C@@H]([C@H](C)CN4CC(OC(F)F)C4)CC[C@@H]23)C[C@H]1O [Compound A018]	1 to 10 nM
C=C1/C(=C\C=C2/CCC[C@]3(C)[C@@H]([C@@H](C)CN4CCCC4)CC[C@@H]23)C[C@@H](O)C[C@@H]1O [Compound B009, (1R,3S,Z)-5-(2-((1R,3aS,7aR,E)-7a-methyl-1-((R)-1-(pyrrolidin-1-yl)propan-2-yl)octahydro-4H-inden-4-ylidene)ethylidene)-4-methylenecyclohexane-1,3-diol]	100 to 1000 nM
C[C@H](CCCN1CC[C@@H](C(F)F)C1)[C@H]1CC[C@H]2/C(=C/C=C3C[C@@H](O)C[C@H](O)C3)CCC[C@]12C [Compound B085, (1R,3R)-5-(2-((1R,3aS,7aR,E)-1-((R)-5-((R)-3-(difluoromethyl)pyrrolidin-1-yl)pentan-2-yl)-7a-methyloctahydro-4H-inden-4-ylidene)ethylidene)cyclohexane-1,3-diol]	10 to 100 nM
C=C1/C(=C\C=C2/CCC[C@]3(C)[C@@H]([C@H](C)CN4CC[C@@H](C(F)F)C4)CC[C@@H]23)C[C@@H](O)[C@H](C)[C@@H]1O [Compound B025, (1R,2S,3 S,Z)-5-(2-((1R,3aS,7aR,E)-1-((S)-1-((R)-3-(difluoromethyl)pyrrolidin-1-yl)propan-2-yl)-7a-methyloctahydro-4H-inden-4-ylidene)ethylidene)-2-methyl-4-methylenecyclohexane-1,3-diol]	10 to 100 nM
C[C@H](CCCN1CC[C@H](F)C1)[C@H]1CC[C@H]2/C(=C/C=C3C[C@@H](O)C[C@H](O)C3)CCC[C@]12C [Compound B016, (1R,3R)-5-(2-((1R,3aS,7aR,E)-1-((R)-5-((S)-3-fluoropyrrolidin-1-yl)pentan-2-yl)-7a-methyloctahydro-4H-inden-4-ylidene)ethylidene)cyclohexane-1,3-diol]	10 to 100 nM
C=C1[C@H](O)CC(=C/C=C2\CCC[C@]3(C)[C@@H]([C@H](C)CN4CC[C@H](CC)C4)CC[C@@H]23)C[C@H]1O [Compound B005, (1R,3R)-5-(2-((1R,3aS,7aR,E)-1-((S)-1-((S)-3-ethylpyrrolidin-1-yl)propan-2-yl)-7a-methyloctahydro-4H-inden-4-ylidene)ethylidene)-2-methylenecyclohexane-1,3-diol]	1 to 10 nM
C=C1/C(=C\C=C2/CCC[C@]3(C)[C@@H]([C@H](C)CN4CC[C@@](C)(O)C4)CC[C@@H]23)C[C@@H](O)C[C@@H]1O [Compound B074, (1R,3S,Z)-5-(2-((1R,3aS,7aR,E)-1-((S)-1-((R)-3-hydroxy-3-methylpyrrolidin-1-yl)propan-2-yl)-7a-methyloctahydro-4H-inden-4-ylidene)ethylidene)-4-methylenecyclohexane-1,3-diol]	100 to 1000 nM
C[C@H](CCN1CC[C@@H](F)C1)[C@H]1CC[C@H]2/C(=C/C=C3C[C@@H](O)C[C@H](O)C3)CCC[C@]12C [Compound B015, (1R,3R)-5-(2-((1R,3aS,7aR,E)-1-((R)-4-((R)-3-fluoropyrrolidin-1-yl)butan-2-yl)-7a-methyloctahydro-4H-inden-4-ylidene)ethylidene)cyclohexane-1,3-diol]	10 to 100 nM
C[C@H](CCN1CC[C@H](C(F)F)C1)[C@H]1CC[C@H]2/C(=C/C=C3C[C@@H](O)C[C@H](O)C3)CCC[C@]12C [Compound B080, (1R,3R)-5-(2-((1R,3aS,7aR,E)-1-((R)-4-((S)-3-(difluoromethyl)pyrrolidin-1-yl)butan-2-yl)-7a-methyloctahydro-4H-inden-4-ylidene)ethylidene)cyclohexane-1,3-diol]	10 to 100 nM

Next, values leading:

EC50	Structure (SMILES)
< 1 nM	C=C1/C(=C\C=C2/CCC[C@]3(C)[C@@H]([C@@H](C)CN4CCCC(O)(C(F)(F)F)C4)CC[C@@H]23)C[C@@H](O)C[C@@H]1O (single isomer, unassigned) [Compound C033a]
10 to 100 nM	C=C1[C@H](O)CC(=C/C=C2\CCC[C@]3(C)[C@@H]([C@@H](C)CN4CCC(CC(F)F)CC4)CC[C@@H]23)C[C@H]1O [Compound C056, (1R,3R)-5-(2-((1R,3aS,7aR,E)-1-((R)-1-(4-(2,2-difluoroethyl)piperidin-1-yl)propan-2-yl)-7a-methyloctahydro-4H-inden-4-ylidene)ethylidene)-2-methylenecyclohexane-1,3-diol]
100 to 1000 nM	C[C@H](CCN1CCOCC1(C)C)[C@H]1CC[C@H]2/C(=C/C=C3C[C@@H](O)C[C@H](O)C3)CCC[C@]12C [Compound D049, (1R,3R)-5-(2-((1R,3aS,7aR,E)-1-((R)-4-(3,3-dimethylmorpholino)butan-2-yl)-7a-methyloctahydro-4H-inden-4-ylidene)ethylidene)cyclohexane-1,3-diol]
1 to 10 nM	C=C1/C(=C\C=C2/CCC[C@]3(C)[C@@H]([C@H](C)CN4CCC(O)(C(F)F)CC4)CC[C@@H]23)C[C@@H](O)[C@H](C)[C@@H]1O [Compound C023, (1R,2S,3S,Z)-5-(2-((1R,3aS,7aR,E)-1-((S)-1-(4-(difluoromethyl)-4-hydroxypiperidin-1-yl)propan-2-yl)-7a-methyloctahydro-4H-inden-4-ylidene)ethylidene)-2-methyl-4-methylenecyclohexane-1,3-diol]
1 to 10 nM	C=C1/C(=C\C=C2/CCC[C@]3(C)[C@@H]([C@H](C)CN4CCC(O)(C(F)(F)F)CC4)CC[C@@H]23)C[C@@H](O)C[C@@H]1O [Compound C001, (1R,3S,Z)-5-(2-((1R,3aS,7aR,E)-1-((S)-1-(4-hydroxy-4-(trifluoromethyl)piperidin-1-yl)propan-2-yl)-7a-methyloctahydro-4H-inden-4-ylidene)ethylidene)-4-methylenecyclohexane-1,3-diol]
10 to 100 nM	CCC1(O)CCCN(C[C@@H](C)[C@H]2CC[C@H]3/C(=C/C=C4C[C@@H](O)C[C@H](O)C4)CCC[C@]23C)C1 (single isomer, unassigned) [Compound C044a]
1 to 10 nM	C=C1[C@H](O)CC(=C/C=C2\CCC[C@]3(C)[C@@H]([C@H](C)CN4CCOC(C)(C)C4)CC[C@@H]23)C[C@H]1O [Compound D014, (1R,3R)-5-(2-((1R,3aS,7aR,E)-1-((S)-1-(2,2-dimethylmorpholino)propan-2-yl)-7a-methyloctahydro-4H-inden-4-ylidene)ethylidene)-2-methylenecyclohexane-1,3-diol]
100 to 1000 nM	C=C1/C(=C\C=C2/CCC[C@]3(C)[C@@H]([C@H](C)CN4CCC(O)(C(F)F)CC4)CC[C@@H]23)C[C@@H](O)C[C@@H]1O [Compound C021, (1R,3S,Z)-5-(2-((1R,3aS,7aR,E)-1-((S)-1-(4-(difluoromethyl)-4-hydroxypiperidin-1-yl)propan-2-yl)-7a-methyloctahydro-4H-inden-4-ylidene)ethylidene)-4-methylenecyclohexane-1,3-diol]
10 to 100 nM	C[C@@H](CN1CCC(O)(C(F)F)CC1)[C@H]1CC[C@H]2/C(=C/C=C3C[C@@H](O)C[C@H](O)C3)CCC[C@]12C [Compound C025, (1R,3R)-5-(2-((1R,3aS,7aR,E)-1-((R)-1-(4-(difluoromethyl)-4-hydroxypiperidin-1-yl)propan-2-yl)-7a-methyloctahydro-4H-inden-4-ylidene)ethylidene)cyclohexane-1,3-diol]
1 to 10 nM	C=C1/C(=C\C=C2/CCC[C@]3(C)[C@@H]([C@@H](C)CN4CCC(C(F)(F)F)CC4)CC[C@@H]23)C[C@@H](O)[C@H](C)[C@@H]1O [Compound C012, (1R,2S,3S,Z)-2-methyl-5-(2-((1R,3aS,7aR,E)-7a-methyl-1-((R)-1-(4-(trifluoromethyl)piperidin-1-yl)propan-2-yl)octahydro-4H-inden-4-ylidene)ethylidene)-4-methylenecyclohexane-1,3-diol]
1 to 10 nM	C=C1/C(=C\C=C2/CCC[C@]3(C)[C@@H]([C@H](C)CN4CCCC(C)(OC)C4)CC[C@@H]23)C[C@@H](O)C[C@@H]1O (single isomer, unassigned) [Compound C043a]
10 to 100 nM	C[C@H](CN1CCCC(O)(C(F)F)C1)[C@H]1CC[C@H]2/C(=C/C=C3C[C@@H](O)C[C@H](O)C3)CCC[C@]12C (single isomer, unassigned) [Compound C035b]
